Laboratory results published in ChEMBL document CHEMBL3797103, “Synthesis of a dansyl-labeled inhibitor of 17β-hydroxysteroid dehydrogenase type 3 for optical imaging” (Bioorg Med Chem Lett, 2016).

Tests used:
[1] = molecular target: T1, 17-beta-hydroxysteroid dehydrogenase type 3 (Homo sapiens, UniProt P37058); assay: Inhibition of 17betaHSD3 (unknown origin) transfected in human LNCAP cells assessed as conversion of [14C]-4-androstene-3,17-dione into [14C]-testosterone after 3 hrs; format: cell-based
T1 sequence (P37058 whole entry): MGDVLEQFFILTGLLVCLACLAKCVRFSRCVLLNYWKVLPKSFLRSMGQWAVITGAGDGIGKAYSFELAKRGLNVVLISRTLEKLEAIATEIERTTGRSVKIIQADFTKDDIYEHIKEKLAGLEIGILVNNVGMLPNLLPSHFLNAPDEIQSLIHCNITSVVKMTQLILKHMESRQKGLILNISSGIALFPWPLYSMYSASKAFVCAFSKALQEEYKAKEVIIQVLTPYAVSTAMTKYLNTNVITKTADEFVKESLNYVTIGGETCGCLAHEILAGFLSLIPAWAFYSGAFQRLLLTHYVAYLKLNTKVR

LNCaP [2] = assay: Drug uptake in wild-type human LNCAP cells at 3 to 50 uM after 4 hrs by flow cytometric analysis; format: ADME, cell-based
LNCaP [3] = assay: Drug uptake in 17betaHSD3 expressing human LNCAP cells at 3 to 50 uM after 4 hrs by flow cytometric analysis; format: ADME, cell-based
LNCaP [4] = assay: Drug uptake in 17betaHSD3 expressing human LNCAP cells assessed as shape of the cells at 10 uM excited at 350 nm after 4 hrs by fluorescence confocal spinning disk microscopic analysis; format: ADME, cell-based
LNCaP [5] = assay: Drug localization in 17betaHSD3 expressing human LNCAP cell assessed as localized space around endoplasmic reticulum at 1 uM preincubated for 3 hrs followed by ER tracker addition for the last remaining hour by fluorescent microscopic analysis; format: ADME, cell-based
LNCaP [6] = assay: Drug uptake in wild type human LNCAP cells assessed as shape of the cells at 10 uM excited at 350 nm after 4 hrs by fluorescence confocal spinning disk microscopic analysis; format: ADME, cell-based
LNCaP [7] = assay: Drug uptake in 17betaHSD3 expressing human LNCAP cells assessed as mean fluorescence intensity at 30 uM after 4 hrs by flow cytometric analysis; format: ADME, cell-based
[8] = Drug localization in 17betaHSD3 expressing human LNCAP cell assessed as localised around lysosomes at 1 uM after 4 hrs by fluorescent microscopic analysis in the presence of lysosome tracker; format: ADME, cell-based

| SMILES | IC50 [1] | Drug uptake (LNCaP [2]) | Drug uptake (LNCaP [3]) | Drug uptake (LNCaP [4]) | Drug uptake (LNCaP [5]) | Drug uptake (LNCaP [6]) | Flu intensity (LNCaP [7]) | Drug uptake [8] |
| --- | --- | --- | --- | --- | --- | --- | --- | --- |
| C[C@@H]1CN(S(=O)(=O)c2ccccc2C(F)(F)F)[C@@H](C)CN1C[C@@]1(O)CC[C@@]2(C)[C@@H](CC[C@@H]3[C@@H]2CC[C@]2(C)C(=O)CC[C@@H]32)C1 | 85 nM |  |  |  |  |  |  |  |
| C[C@@H]1CN(S(=O)(=O)c2cccc3c(N(C)C)cccc23)[C@@H](C)CN1C[C@@]1(O)CC[C@@]2(C)[C@@H](CC[C@@H]3[C@@H]2CC[C@]2(C)C(=O)CC[C@@H]32)C1 | 262 nM | Active | Active | Active | Active | Not Active | 4 | Active |
